Experimental data from patent US9890175B2, “Taxane compound, and preparation method and use thereof” (JIANGSU TASLY DIYI PHARMACEUTICAL CO., LTD., priority 2013, dated 2018).
Read-outs that look alike come from different tables or passages of the source.

Legend:
K562 leukemia = assay: MTT proliferation inhibition, K562; format: cell-based; details: Homo sapiens, K562, read-out: Proliferation inhibition rate, K562 Leukemia
Source text: (§1) 1. Cytotoxicity Assay Using Human Tumor Cell Lines
(§2) Paclitaxel was used as the positive drug.

HCT 116 colon cancer = assay: MTT proliferation inhibition, HCT 116; format: cell-based; details: Homo sapiens, HCT-116, read-out: Proliferation inhibition rate, HCT 116 Colon cancer
Source text: as §1, §2

A375 melanoma = assay: MTT proliferation inhibition, A375; format: cell-based; details: Homo sapiens, A-375, read-out: Proliferation inhibition rate, A375 Melanoma
Source text: as §1, §2

BGC-823 gastric cancer = assay: MTT proliferation inhibition, BGC-823; format: cell-based; details: Homo sapiens, BGC-823, read-out: Proliferation inhibition rate, BGC-823 Gastric cancer
Source text: as §1, §2

[1] = In vivo oral bioavailability assay in rats; details: rat; for AUC(0-t): 0-24 hours; for MRT inf: read-out: MRT0-∞
Source text: The compound PCMI-08 was synthesized and detected according to the methods provided in the present invention. The internal standard, paclitaxel, was purchased from China's National Institute for the Control of Pharmaceutical and Biological Products (NICPBP). Chromatography-grade acetonitrile was purchased from Sigma-Aldrich Inc. Tween 80 and ethyl acetate were purchased from Aladdin reagent Inc. Male S.D. rats were purchased from Beijing Weitonglihua Inc. and raised in animal house for two weeks.
200 mg of PCMI-08 was dissolved in 4 ml of a mixed solution of Tween 80 and anhydrous ethanol (1:1) to prepare a stock solution at 50 mg/ml and normal saline was added to adjust to a suitable concentration. 12 male S.D. rats (300 g of body weight) were taken and divided into two groups after overnight fasting. One group was treated with intravenous injection (5 mg/kg) and the other group was treated orally (60 mg/kg). Blood was sampled in the intravenous group at 0th min, 5th min, 10th min, 20th min, 40th min, 1st h, 2nd h, 4th h, 6th h, 8th h, 12th h, 24th h, while the oral group at 5th min, 15th min, 30th min, 45th min, 1st h, 2nd h, 4th h, 6th h, 8th h, 12th h, 24th h. After 10 min centrifugation of plasma at 4500 rpm, the upper serum was taken and transferred to the corresponding EP tube, placed in a −40° C. freezer for assay.
Agilent 1100 series configuration: Agilent G1313A HPLC autosampler device, 150 mm×2.1 mm C18 Thermo column (particle size 3 μm) reversed-phase column, detection wavelength at 230 nm, column temperature at 30° C., mobile phase of acetonitrile/water (7:3), a flow rate at 0.2 ml/min, injection volume of 20 μl. The mass spectrometry (MS) combined was Thermo Finnigan TSQ Quantum triple quadrupole configurated with electrospray ionization (ESI) in the positive ion mode. The parameters of MS analysis were as follows: spray chamber voltage, 4.0 kv; heated capillary temperature, 350° C.; protective gas (nitrogen); 20 psi; auxiliary gas (nitrogen): 5 psi; collision gas (argon); pressure: 1.5 mmTorr.; Collision energy: CA 17 eV; FA and IFA were 19 eV; IS was 15 eV.
Paclitaxel was selected as an internal standard with a retention time of 3.07 min. Retention time of PCMI-08 was 5.13 min. MS detection condition to PCMI-08 was set as follows: 957→901 m/z; paclitaxel as an internal standard. Detection conditions: 876→308 m/z. The concentration range of the standard curve of PCMI-08 was 5-10,000 ng/ml (γ^2>0.99) and the minimum detection limit was 5 ng/ml.
100 μL of plasma samples were taken, into which 100 μL of the internal standard (paclitaxel, 500 ng/ml acetonitrile solution) was added, followed by addition of 3 ml of ethyl acetate after well homogenized via vortex, after 5 min shaking, centrifuging for 8 min at a rotating speed of 4500 rpm. The supernatant was transferred to a clean EP tube with nitrogen to blow to dry under heating condition. After reconstitution with 120 μL mobile phase (CH3CN/H2O=7:3), the solution was centrifuged at 12,000 rpm for 3 min, 100 μl of supernatant was taken and transferred to an autosampler vial. After LC-MS/MS detection, statistical data and pharmacokinetic parameters were processed by Xcalibur® (version 1.3) software (Thermo Finnigan).

[2] = system: A549 non-small cell lung cancer; assay: MTT proliferation inhibition, A549; format: cell-based; details: Homo sapiens, A549, read-out: Proliferation inhibition rate, A549 Non-small cell lung cancer
Source text: as §1, §2

[3] = system: breast cancer cell line MCF-7; assay: IC50 on breast cancer cell line MCF-7; format: cell-based; details: Homo sapiens, MCF7, 72 h, read-out: MCF-7 (IC50, nM)
Hela cervical cancer = assay: MTT proliferation inhibition, HeLa; format: cell-based; details: Homo sapiens, read-out: Proliferation inhibition rate, HeLa Uterin cancer
Source text: as §1, §2

Du145 prostate cancer = assay: MTT proliferation inhibition, Du145; format: cell-based; details: Homo sapiens, DU-145, read-out: Proliferation inhibition rate, DU145 Prostate cancer
Source text: as §1, §2

[4] = system: NCI-H460 non-small cell lung cancer; assay: MTT proliferation inhibition, NCI-H460; format: cell-based; details: Homo sapiens, NCI-H460, read-out: Proliferation inhibition rate, NCI-H460 Non-small cell lung cancer
Source text: as §1, §2

B16 melanoma = assay: MTT proliferation inhibition, B16; format: cell-based; details: B16, read-out: Proliferation inhibition rate, B16 Melanoma
Source text: as §1, §2

LNCaP prostate cancer = assay: MTT proliferation inhibition, LNCaP; format: cell-based; details: Homo sapiens, read-out: Proliferation inhibition rate, LNCaP Prostate cancer
Source text: as §1, §2

A2780 ovarian cancer = assay: MTT proliferation inhibition, A2780; format: cell-based; details: Homo sapiens, A2780, read-out: Proliferation inhibition rate, A2780 Ovarian cancer
Source text: as §1, §2

[5] = male, Sprague-Dawley, plasma, intravenous administration 5 mg/kg
[6] = male, Sprague-Dawley, plasma, oral administration 60 mg/kg

Which results are given for `CO[C@H]1C[C@H]2OC[C@@]2(OC(C)=O)[C@H]2[C@H](OC(=O)c3ccccc3)[C@]34OC(=O)O[C@H]3[C@H](OC(=O)[C@H](O)[C@@H](NC(=O)OC(C)(C)C)c3ccccc3)C(C)=C([C@@H](OC(=O)N(C)C)C(=O)[C@]12C)C4(C)C` [PCMI-08]?
inhibition at 1 µM (K562 leukemia): 90.8%; inhibition at 1 µM (HCT 116 colon cancer): 58.7%; inhibition at 1 µM (A375 melanoma): 92.8%; inhibition at 1 µM (BGC-823 gastric cancer): 80.8%; half-life ([1]; male, Sprague-Dawley, plasma, other: intravenous and oral (summary over both arms), route not specified, read-out: half-life (converted)): ~10 h; AUC(0-inf) [1, 5]: 4050 ± 1860 ng·h/mL; Cmax [1, 5]: 11000 ± 2680 ng/mL; Tmax [1, 5]: 0 h; AUC(0-t) [1, 5]: 3440 ± 1480 ng·h/mL; MRT inf [1, 5]: 10.1 ± 2.6 h; half-life ([1]; male, Sprague-Dawley, plasma, intravenous administration 5 mg/kg, read-out: t1/2 (converted)): 10.2 ± 1.72 h; AUC(0-inf) [1, 6]: 32000 ± 8540 ng·h/mL; Cmax [1, 6]: 2120 ± 454 ng/mL; Tmax [1, 6]: 3 ± 1.1 h; AUC(0-t) [1, 6]: 25300 ± 6150 ng·h/mL; MRT inf [1, 6]: 15.2 ± 1.71 h; half-life ([1]; male, Sprague-Dawley, plasma, oral administration 60 mg/kg, read-out: t1/2 (converted)): 10.4 ± 1.14 h; bioavailability ([1]; male, Sprague-Dawley, plasma, oral, 60 mg/kg, oral 60 mg/kg vs intravenous 5 mg/kg, read-out: F, absolute oral bioavailability): 65.8%; F, absolute oral bioavailability ([1]; oral 60 mg/kg vs intravenous 5 mg/kg): 65.79%; mean retention time ([1]; route not specified): ≥ 10 h; inhibition at 1 µM [2]: 68.1%; IC50 [3]: 7.93 ± 0.14 nM; inhibition at 1 µM (Hela cervical cancer): 97.3%; inhibition at 1 µM (Du145 prostate cancer): 86.7%; inhibition at 1 µM [4]: 85.2%; inhibition at 1 µM (B16 melanoma): 70.6%; inhibition at 1 µM (LNCaP prostate cancer): 84.3%; inhibition at 1 µM (A2780 ovarian cancer): 92.5%
